Results from article PMC7619385 (ACS infectious diseases, 2025).
Like-named read-outs stand apart in the source and are kept apart here.

How the values were obtained:
NLuc::LmxCLK1 [1] = target: T1, NLuc::LmxCLK1 (Leishmania mexicana, UniProt E9AMP2); assay: In vitro BRET with purified NLuc::LmxCLK1; type: binding
Procedure: in vitro BRET used purified NLuc-LmxCLK1 in Kinase Buffer (50 mM HEPES, 1 mM EGTA, 10 mM MgCl^2, 2 mM DTT and 0.01% Tween-20) aliquoted into 96-well plates (Greiner #655904). In cell BRET assays used engineered L. mexicana (promastigotes or intramacrophage amastigotes) expressing NLuc-LmxCLK1 in cell media aliquoted into 96-well plates (Greiner, #655083). For tracer titration experiments, BRET probes were serially diluted from 100% DMSO stocks – first in 100% DMSO to 100x final assay concentration, and then in Tracer Dilution Buffer (TDB - 12.5 mM HEPES, pH 7.5; 31.25% PEG 400) to 20x the final assay concentration. Serially diluted probes (5 µL) were added to 85 µL of cells in culture media or 85 µL of purified protein. Final well volumes were adjusted to 100 µL with sterile Opti-MEM™ I Reduced Serum Medium (Thermo-Scientific) – for wells containing cells; or Kinase Buffer - for wells containing purified protein. For tracer displacement assays, samples were prepared as above, but final volume was brought to 100 µL by addition of vehicle or serially-diluted test compounds. Final DMSO concentration in these assays was 1%. Plates were incubated for 30 min at 25 °C (purified protein and promastigotes) or 34 °C (intramacrophage amastigotes), and 50 µL of Promega cocktail containing furimazine and NLuc extracellular inhibitor (catalog #N2161) were added to each well. Light emissions at 460+10 nm (BRET donor) and at 610+20 nm (BRET acceptor) were sequentially recorded (integration time = 0.5 s, gain = 3600) using a luminometer (BMG LABTECH Clariostar or Biotek Synergy HT). BRET values are reported in milli-BRET (mBRET) units (mBU), obtained by dividing the acceptor luminescence by the donor luminescence and multiplying the result by a factor of 1,000. BRET values were converted to blank-corrected probe occupancies (%) according to equation [1]: (1) Probeoccupancy(%)=X−Z/Y−Z×100 where X = mBRET value in the presence of the test compound and the probe, Y = mBRET value in the presence of probe only, and Z = mBRET value in the absence of probe and test compound.
To determine apparent dissociation constants from saturation binding curves, mBRET values were plotted as a function of probe concentration, and probe affinity values (KD) were determined using the hyperbolic dose-response equation for binding to a single site available in GraphPad Prism (v. 9.1.0).

[2] = tested on: L. mexicana promastigotes; assay: Promastigote viability (Alamar Blue/resazurin); type: cell-based; conditions: Leishmania mexicana; 48 h compound exposure; read-out: EC50 promastigote viability
Procedure: Next, we evaluated GZD824 ability to reduce the viability of L. mexicana promastigotes by monitoring the reduction of resazurin (Alamar Blue).[31]
L. mexicana (strain MNYC/BZ/62/M379) promastigotes were cultivated in medium 199 (M199) (Earle’s Salts - Gibco) supplemented with 10% (v/v) heat-inactivated fetal calf serum (HIFCS – Cultilab) and 1% Penicillin/Streptomycin solution (Sigma-Aldrich) at 26 °C. Phenotypic drug response assays in null mutant and point-mutation mutant lines were performed in HOMEM supplemented with 10% (v/v) heat-inactivated fetal calf serum (HIFCS – Gibco). THP-1 monocytes were differentiated in adherent macrophages with 50 ng of PMA for 72 h at 37 °C and 5% CO2 before infection with stationary phase promastigotes (ratio 10 promastigotes:1 macrophage) for 6 h, followed by washing to remove non-internalized Leishmania. Infected macrophages were incubated at 34 °C and 5% CO2 for 48 h in RPMI (Gibco) supplemented with 10% HIFCS and 1% Penicillin/Streptomycin solution.
For evaluation of drug effect on promastigote and uninfected macrophage viability, cells were cultivated in the presence of test compounds for 24 h and incubated with 10% AlamarBlue™ Cell Viability Reagent (ThermoFisher) for 24 h before measuring fluorescence at λex 540 nm/λem 590 nm. Untreated cells (1% DMSO) were set as 100 % viable cells. Intracellular amastigotes were treated with compounds for 48 h. Slides with paraformaldehyde-fixed and DAPI-stained cells were imaged on a Zeiss AxioImager microscope – at least 200 macrophages per drug concentration and DMSO control. Experiments were performed in duplicate. The total number of amastigotes was normalized by the number of macrophages counted. For EC50 determination, the data was fitted to the sigmoidal dose-response (variable slope) equation in GraphPad Prism (v.9.1.0).

LmxCLK1 [3] = target: T2, LmxCLK1 (Leishmania mexicana, UniProt E9AMP2); assay: HTRF (TR-FRET) enzymatic inhibition assay; type: biochemical; conditions: IC50 enzymatic inhibition of LmxCLK1, purified LmxCLK1, 30-min pre-incubation, 66 µM ATP
T2 sequence (E9AMP2 1-422): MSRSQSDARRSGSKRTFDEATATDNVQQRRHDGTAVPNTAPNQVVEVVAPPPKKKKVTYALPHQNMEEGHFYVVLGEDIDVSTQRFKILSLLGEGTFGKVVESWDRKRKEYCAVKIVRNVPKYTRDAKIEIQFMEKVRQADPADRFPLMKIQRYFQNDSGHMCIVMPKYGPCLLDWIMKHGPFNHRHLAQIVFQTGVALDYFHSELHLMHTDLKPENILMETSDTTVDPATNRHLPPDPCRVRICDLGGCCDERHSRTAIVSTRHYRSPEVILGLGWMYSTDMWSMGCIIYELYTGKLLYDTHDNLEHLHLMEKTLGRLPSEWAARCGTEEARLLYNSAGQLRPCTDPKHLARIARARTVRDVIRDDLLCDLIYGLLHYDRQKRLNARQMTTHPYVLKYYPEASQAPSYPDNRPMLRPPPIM
Procedure: The enzymatic activity of full-length LmxCLK1 was monitored using a homogenous time-resolved fluorescence (HTRF)-based assay (HTRF KinEASE-STK S3 kit, Cisbio - catalog #62ST3PEC). For IC50 value determination, the data from two independent experiments performed in duplicate were fitted to the sigmoidal dose-response (variable slope) equation available in GraphPad Prism (v. 9.1.0). Detailed information for IC50 determination can be found in the Supplementary Information. […]
min at 4 °C. The supernatants were loaded onto an immobilized metal affinity chromatography (IMAC) […]
column (5 mL HisTrap FF Crude, GE Healthcare) and washed in Binding Buffer containing 30 mM imidazole.
Proteins were eluted in Binding Buffer with 300 mM imidazole. To remove the N-terminal 6xHis-tag […]
introduced during cloning (see above), proteins were incubated with TEV protease during dialysis […]
overnight at 4 °C into Gel Filtration Buffer (20 mM HEPES, 500 mM NaCl, 5% glycerol, 0.5 mM TCEP).
Recombinant proteins were further purified using reverse affinity chromatography on Ni-Sepharose […]
followed by gel filtration (Superdex 200 16/60, GE Healthcare), and concentrated using 10 kDa molecular […]
weight cut-off centrifugal concentrators (Millipore). LmxCLK1 (CQMED clone ID LmxCLK1-cb001) and […]
NLuc-LmxCLK1 (CQMED clone ID LmxCLK1-cb021) proteins were stored at -80 °C for in vitro biochemical […]
assays at 0.5 mg/mL and 0.7 mg/mL, respectively, measured by UV absorbance with a NanoDrop […]
spectrophotometer (Thermo Scientific), using the calculated molecular weight and estimated extinction […]
Purified proteins were further analyzed by LC-ESI-MS in a XEVO G2 Sx Q-ToF (Waters). Expected intact […]
masses for LmxCLK1 (CQMED clone ID LmxCLK1-cb001) and NLuc-LmxCLK1 (CQMED clone ID LmxCLK1- […]
cb021) were: 48,791.14 Da and 68,411.71 Da, respectively.
We monitored the activity of recombinantly produced full-length LmxCLK1 (CQMED clone ID LmxCLK1- […]
cb001) using a commercially-available homogenous time-resolved fluorescence (HTRF)-based assay (HTRF […]
KinEASE-STK S3 kit, Cisbio - catalog #62ST3PEC). Assay development included establishing reaction […]
parameters (optimal enzyme concentration, ATP concentration and reaction time).
(15-point, 3-fold serial dilution and a highest final assay concentration of 10 µM) prior to transfer (100 nL) […]
to a black, 384-well, round bottom, low-volume plate (Corning catalog #4514) containing a mixture of […]
LmxCLK1 and peptide substrate in kinase buffer using an automated liquid transferring system (CYBIO […]
FeliX®, Analytik Jena, Jena, Germany). […]
started by the addition of ATP and allowed to proceed for 75 min at 30 °C. Final concentrations for reaction […]
components were: 6 nM LmxCLK1, 66 µM ATP (10× KM,ATP), 1 µM peptide (STK Substrate 3-biotin, Cisbio).
All components were prepared in 1× Enzymatic Buffer (Cisbio) supplemented with 5 mM MgCl2, 1 mM […]
DTT, 0.01% Tween-20. The reaction was stopped by the addition of Detection Buffer containing EDTA, […]
Fluorescence signal was measured using a CLARIOstar microplate reader (BMG LABTECH) with excitation […]
at 330 nm, emission at 665 nm (acceptor) and 620 nm (donor), integration delay 60 μs and integration […]
time 400 μs. All reactions were done in duplicate and two independent experiments were performed.
Enzyme activity was expressed as the background-corrected HTRF ratio of the acceptor and donor […]
emission signals according to equation [1]:
(also on this page, place not known: imi dazole. Ni -Sepharose background -corrected (665/620)=3Acceptor!!"#$ −backgroundD.10,000 Downloaded from http://pubs.acs.org/aidcbc/article-supplement/3662943/pdf/id5c00610_si_001/ by guest on 07 August 2026) […]
where background is the background fluorescence obtained in the absence of enzyme (blank).
To determine IC50 values, the background-corrected HTRF ratio was plotted as a function of test

LmxCLK1 [4] = target: T2, LmxCLK1; assay: biochemical; type: binding
NLuc::LmxCLK1 [5] = target: T1, NLuc::LmxCLK1; assay: cell-based; type: cell-based; conditions: for Target occupancy Run 1 / Target occupancy Run 2 / Target occupancy Average: 10 µM compound, tracer SV366, promastigotes; for Target occupancy Average: mean of two experiments
How it was run: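 NanoBRET tracer displacement in live cells expressing NLuc-tagged CLK1, test compounds at 10 µM fixed, 1% DMSO final. Acceptor/donor emission (610/460 nm) ratio gives mBRET, converted to blank-corrected probe occupancy (%); probe KD from single-site saturation binding fits.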

[6] = DSF, 10 µM compound, 2 µM LmxCLK1, Run 1, read-out: ΔTm Run 1
[7] = DSF, 10 µM compound, 2 µM LmxCLK1, Run 2, read-out: ΔTm Run 2
[8] = DSF, 10 µM compound, 2 µM LmxCLK1, mean of two runs, read-out: ΔTm Average
[9] = read-out: Target occupancy Average
[10] = read-out: Target occupancy Run 1
[11] = read-out: Target occupancy Run 2
[12] = DSF, 10 µM compound, 2 µM LmxCLK1, Run 1
[13] = DSF, 10 µM compound, 2 µM LmxCLK1, Run 2
[14] = DSF, 10 µM compound, 2 µM LmxCLK1, mean of two runs

Compound | ΔTm at 10 µM (LmxCLK1 [4]; [6]) [°C] | ΔTm at 10 µM (LmxCLK1 [4]; [7]) [°C] | ΔTm at 10 µM (LmxCLK1 [4]; [8]) [°C] | receptor occupancy at 10 µM (NLuc::LmxCLK1 [5]; [9]) [%] | receptor occupancy at 10 µM (NLuc::LmxCLK1 [5]; [10]) [%] | receptor occupancy at 10 µM (NLuc::LmxCLK1 [5]; [11]) [%] | ΔTm Run 1 (LmxCLK1 [4]; [12]) [°C] | ΔTm Run 2 (LmxCLK1 [4]; [13]) [°C] | ΔTm Average (LmxCLK1 [4]; [14]) [°C] | Target occupancy Run 1 (NLuc::LmxCLK1 [5]) [%] | Target occupancy Run 2 (NLuc::LmxCLK1 [5]) [%] | Target occupancy Average (NLuc::LmxCLK1 [5]) [%] | further results
Cc1ccc(C(=O)Nc2ccc(CN3CCN(CCCNC(=O)CCC4=[N+]5C(=Cc6ccc(-c7ccc[nH]7)n6[B-]5(F)F)C=C4)CC3)c(C(F)(F)F)c2)cc1C#Cc1cnc2[nH]ncc2c1 [SV363] | – | – | – | – | – | – | – | – | – | – | – | – | EC50 (NLuc::LmxCLK1 [1]): > 1000 nM
CN[C@@H]1C[C@H]2O[C@@](C)([C@@H]1OC)n1c3ccccc3c3c4c(c5c6ccccc6n2c5c31)C(=O)NC4 [Staurosporine] | – | – | – | – | – | – | – | – | – | – | – | – | EC50 [2]: 900 nM; IC50 (LmxCLK1 [3]): 460 nM
C[C@H](NC(=O)/C(C#N)=C/c1cccc(Br)n1)c1ccccc1 [WP1066] | 0.1 | 0 | 0 | -7.5 | 3.4 | -18.3 | – | – | – | – | – | – | –
COC[C@H]1OC(=O)c2coc3c2[C@@]1(C)C1=C(C3=O)[C@@H]2CCC(=O)[C@@]2(C)C[C@H]1OC(C)=O [Wortmannin] | 0 | -0.3 | -0.2 | -3.6 | -2.4 | -4.8 | – | – | – | – | – | – | –
COc1ccc(Cl)c(Nc2nc3ccccc3nc2NS(=O)(=O)c2cccc(NC(=O)C(C)(C)N)c2)c1 [XL147] | -0.1 | 0.8 | 0.4 | -5 | -8.3 | -1.7 | – | – | – | – | – | – | –
CC(C)N(CCC(=O)c1ccc2ccccc2c1)Cc1ccccc1.Cl [ZM 39923 HCl] | – | – | – | – | – | – | 0.0 | -0.3 | -0.2 | 0.2 | -18.8 | -9.3 | –
Cc1ccc(NC(=O)c2cccc(N(C)C)c2)cc1NC(=O)c1ccc(O)cc1 [ZM 336372] | – | – | – | – | – | – | -0.1 | -0.5 | -0.3 | -4.5 | -6.5 | -5.5 | –
AZD4547 | – | – | – | – | – | – | -0.1 | -0.3 | -0.2 | -24.6 | 21.5 | -1.5 | –
UNC-AA-1-0013 (AAK1) | – | – | – | – | – | – | – | – | – | 3.7 | -11.6 | -4.0 | ΔTm Average (LmxCLK1 [4]): -0.2; ΔTm Run 1 (LmxCLK1 [4]): -0.2; ΔTm Run 2 (LmxCLK1 [4]): -0.3
